Test results taken from patent publication US20100160369A1, “S1P1 Agonists and Methods of Making And Using” (EXELIXIS, INC., priority 2008, published 2010).
pEC50: −log10 of the molar value.

Key:
[1] = target: T1, hS1P1R (hEdg1) (Homo sapiens, UniProt P21453); test: hS1P1R GTPγS Binding Assay (Assay 3a); format: biochemical
T1 construct: purchased Lonza
Experimental: The hS1P1R GTPγS binding assay was carried out at room temperature in 96 well non-binding surface assay plates. The reaction in each well contained 4 μg hS1P1R (hEdg1) membrane protein (Lonza), 30 μM GDP, 0.1 nM [^35S]GTPγS, 0.25% fatty acid free BSA, and serially diluted hS1P1R agonist compound in 200 μL assay buffer (25 mM Tris-HCl PH 7.9, 100 mM NaCl, 3 mM MgCl2, and 0.2 mM EGTA). After one hour of incubation, 0.9 mg of WGA (Wheat Germ Agglutinin) SPA beads in 50 μL of assay buffer was added to each well. The SPA beads were spun down after an additional one hour incubation. The radioactivity of the bound GTPγS was counted by reading the assay plate using a MicroBeta.
Assay 1 is the CNG cAMP Assay as described in Biological Example 1. Assay 2a and 2b are the Tango™ β-arrestin Recruitment Assay in HEK293 and U2OS cells, respectively, as described in Biological Example 2. Assay 3a is the hS1P1R GTPγS Binding Assay as described in Biological Example 3. Assay 3b is the GTP-Eu Binding Assay as described in Biological Example 3. EC50's were measured unless otherwise noted. […] In the table, “nt” means the Compound was not tested and “no” means the compound was tested but had no measurable activity under the assay conditions employed.

[2] = target: T2, S1P1 (Homo sapiens, UniProt P21453); test: Tango β-arrestin Recruitment Assay in U2OS cells (Assay 2b); format: cell-based; design: linker with TEV protease (N1a) cleavage site (C); conditions: Tango β-arrestin Recruitment Assay, read-out: Assay 2b EC50
T2 sequence (P21453 whole entry): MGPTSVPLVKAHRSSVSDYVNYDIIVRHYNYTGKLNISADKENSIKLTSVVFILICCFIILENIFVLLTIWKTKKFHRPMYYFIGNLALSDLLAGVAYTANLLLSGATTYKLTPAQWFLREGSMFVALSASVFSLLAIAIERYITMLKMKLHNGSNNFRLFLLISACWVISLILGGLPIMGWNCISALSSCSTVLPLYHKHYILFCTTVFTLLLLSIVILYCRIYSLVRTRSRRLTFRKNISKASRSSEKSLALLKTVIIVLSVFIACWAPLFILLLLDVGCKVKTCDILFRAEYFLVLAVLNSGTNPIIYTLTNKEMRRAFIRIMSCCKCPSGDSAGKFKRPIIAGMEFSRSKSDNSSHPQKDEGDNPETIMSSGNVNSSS
T2 sequence (P32121 whole entry partner): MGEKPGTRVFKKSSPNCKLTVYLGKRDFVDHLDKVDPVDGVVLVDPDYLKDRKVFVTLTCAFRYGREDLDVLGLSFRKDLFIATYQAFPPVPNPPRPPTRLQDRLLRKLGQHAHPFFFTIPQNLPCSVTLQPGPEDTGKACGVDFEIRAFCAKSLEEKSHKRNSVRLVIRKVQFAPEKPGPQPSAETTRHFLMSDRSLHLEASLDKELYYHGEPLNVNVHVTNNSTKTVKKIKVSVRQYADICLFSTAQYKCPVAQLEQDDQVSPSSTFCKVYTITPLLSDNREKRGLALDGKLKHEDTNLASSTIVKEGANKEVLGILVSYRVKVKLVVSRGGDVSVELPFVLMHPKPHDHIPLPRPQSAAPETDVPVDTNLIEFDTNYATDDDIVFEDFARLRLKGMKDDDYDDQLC
How it was run: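 Agonist EC50 from percent activity relative to 1 μM S1P efficacy control, using background-subtracted 460/530 nm emission ratios. Compounds (max 1 μM, ten 3-fold dilutions) incubated overnight at 37 °C with serum-starved S1P1 U2OS reporter cells, followed by 2 h β-lactamase reagent at room temperature.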

[3] = target: T2, S1P1; test: Tango β-arrestin Recruitment Assay in HEK293 cells (Assay 2a); format: cell-based; design: linker with TEV protease (N1a) cleavage site (C); host or cells: HEK293, transiently transfected; conditions: Tango β-arrestin Recruitment Assay, read-out: Assay 2a EC50
How it was run: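 Agonist-driven β-arrestin2–TEV recruitment releases tTA to drive luciferase in transiently transfected HEK293 cells. Ten 3-fold dilutions from 10 μM top (1% DMSO), 16–18 h at 37 °C; EC50 fitted to percent activity versus DMSO background and 5 μM S1P efficacy control.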

T1 sequence (P21453 whole entry): as the sequence (P21453 whole entry) above

pEC50 [1] | pEC50 [2] | pEC50 [3] | SMILES
≥ 7.00 | ≥ 7.00 | ≥ 7.00 | OCC(O)COc1cc(Cl)c(-c2nc(-c3cn4cc(C(F)(F)F)cc(Cl)c4n3)no2)cc1Cl (stereo not drawn) [Entry 50]
≥ 7.00 | ≥ 7.00 | ≥ 7.00 | OCCCOc1cc(Cl)c(-c2noc(-c3cn4cc(C(F)(F)F)cc(Cl)c4n3)n2)cc1Cl [Example 105, 3-[(2,5-dichloro-4-{5-[8-chloro-6-(trifluoromethyl)imidazo[1,2-a]pyridin-2-yl]-1,2,4-oxadiazol-3-yl}phenyl)oxy]propan-1-ol]
≥ 7.00 | ≥ 7.00 | ≥ 7.00 | OC(CF)COc1cc(Cl)c(-c2noc(-c3cn4cc(C(F)(F)F)cc(Cl)c4n3)n2)cc1Cl (stereo not drawn) [Example 118, 1-[(2,5-dichloro-4-{5-[8-chloro-6-(trifluoromethyl)imidazo[1,2-a]pyridin-2-yl]-1,2,4-oxadiazol-3-yl}phenyl)oxy]-3-fluoropropan-2-ol]
6.30 to 7.00 | ≥ 7.00 | ≥ 7.00 | CC(C)(O)COc1cc(Cl)c(-c2noc(-c3cn4cc(C(F)(F)F)cc(Cl)c4n3)n2)cc1Cl [Example 166, 1-[(2,5-dichloro-4-{5-[8-chloro-6-(trifluoromethyl)imidazo[1,2-a]pyridin-2-yl]-1,2,4-oxadiazol-3-yl}phenyl)oxy]-2-methylpropan-2-ol]
≥ 7.00 | ≥ 7.00 | ≥ 7.00 | OCCCc1cc(Cl)c(-c2noc(-c3cn4cc(C(F)(F)F)cc(Cl)c4n3)n2)cc1Cl [Example 167, 3-(2,5-dichloro-4-{5-[8-chloro-6-(trifluoromethyl)imidazo[1,2-a]pyridin-2-yl]-1,2,4-oxadiazol-3-yl}phenyl)propan-1-ol]
≥ 7.00 | ≥ 7.00 | ≥ 7.00 | OCC(O)COc1cc(Cl)c(-c2noc(-c3cn4cc(C(F)(F)F)cc(Br)c4n3)n2)cc1Cl (stereo not drawn) [Example 212, 3-[(4-{5-[8-bromo-6-(trifluoromethyl)imidazo[1,2-a]pyridin-2-yl]-1,2,4-oxadiazol-3-yl}-2,5-dichlorophenyl)oxy]propane-1,2-diol]
≥ 7.00 | ≥ 7.00 | ≥ 7.00 | OCCOc1cc(Cl)c(-c2noc(-c3cn4cc(C(F)(F)F)cc(Br)c4n3)n2)cc1Cl [Example 277, 2-[(4-{5-[8-bromo-6-(trifluoromethyl)imidazo[1,2-a]pyridin-2-yl]-1,2,4-oxadiazol-3-yl}-2,5-dichlorophenyl)oxy]ethanol]
≥ 7.00 | ≥ 7.00 | ≥ 7.00 | OCC(CO)COc1cc(Cl)c(-c2noc(-c3cn4cc(C(F)(F)F)cc(Cl)c4n3)n2)cc1Cl [Example 278, 2-{[(2,5-dichloro-4-{5-[8-chloro-6-(trifluoromethyl)imidazo[1,2-a]pyridin-2-yl]-1,2,4-oxadiazol-3-yl}phenyl)oxy]methyl}propane-1,3-diol]
5.30 to 6.00 | ≥ 7.00 | ≥ 7.00 | O=C(O)CCc1cc(Cl)c(-c2nnc(-c3cn4cc(C(F)(F)F)cc(Br)c4n3)s2)cc1Cl [Example 286, 3-(4-{5-[8-bromo-6-(trifluoromethyl)imidazo[1,2-a]pyridin-2-yl]-1,3,4-thiadiazol-2-yl}-2,5-dichlorophenyl)propanoic acid]
6.30 to 7.00 | ≥ 7.00 | ≥ 7.00 | CC(C)(O)COc1cc(Cl)c(-c2noc(-c3cn4cc(C(F)(F)F)cc(Br)c4n3)n2)cc1Cl [Example 287, 1-[(4-{5-[8-bromo-6-(trifluoromethyl)imidazo[1,2-a]pyridin-2-yl]-1,2,4-oxadiazol-3-yl}-2,5-dichlorophenyl)oxy]-2-methylpropan-2-ol]
≥ 7.00 | ≥ 7.00 | ≥ 7.00 | C[C@@H](O)COc1cc(Cl)c(-c2noc(-c3cn4cc(C(F)(F)F)cc(Cl)c4n3)n2)cc1Cl [Example 295, (2R)-1-[(2,5-dichloro-4-{5-[8-chloro-6-(trifluoromethyl)imidazo[1,2-a]pyridin-2-yl]-1,2,4-oxadiazol-3-yl}phenyl)oxy]propan-2-ol]
